Results taken from patent publication US11123324B2, “Immunomodulator” (priority 2016, dated 2021).
“Also recorded” adds a separate entry of the source.

How the values were obtained:
[1] = test system: B cells (mouse splenic cells); assay: In vitro class switching induction assay in mouse splenic cell culture with anti-mouse/rat CD40, isotype antibody titer by ELISA; assay type: cell-based; details: for IgE induction, secondary screening / IgG1 induction, secondary screening: ELISA; for IgE induction, secondary screening / IgG1 induction, secondary screening / IgA induction, secondary screening: 3.75 μM; for IgA induction, secondary screening: IgA sandwich ELISA, day 10 after addition; for IgE antibody production on day 7 / total IgG antibody production on day 7: Indolactam V 5, 10 μM
Protocol: Under conditions of free access to food and water, 5- to 8-week-old wild-type BALB/cAJcl (purchased from CLEA Japan, Inc.) was euthanized by cervical dislocation under isoflurane anesthesia. 70% Ethanol was sprayed, left abdomen was incised and the spleen was aseptically isolated. The spleen was subjected to a mild crushing treatment with two sterilized glass slides in a culture petri dish containing 5 ml of cell culture medium (RPMI1640 added with 10% FCS, 0.05 μM 2 ME, 80 μg/ml gentamicin) to give a splenic single cell suspension. The cell suspension was placed in a 15 ml tube, stood for 5 min, and the supernatant free of tissue debris was transferred to a new 15 ml tube. A washing operation was performed twice with the above-mentioned cell culture medium to give the number of viable cells. B cells occupy 35% of the viable cells and the number of B cells was obtained by calculation.
Based on the B cell number obtained in Example 1, the splenic cell suspension was diluted with the above-mentioned cell culture medium to 5×10^5/ml B cells, and the cells were added to a 24-well culture dish. The compound and cytokine were added to each well as shown in the results. […]
[…] As for ELISA capture antibody, each isotype antibody (unlabeled, mentioned later) was diluted to 2 μg/ml with 0.05 M Na2CO3 solution, added to ELISA plate (C96 MAXISORP NUNC-Immunoplate, Thermo Scientific) at 50 μl/well, and the plate was coated overnight at 4° C.
The next day, the coated ELISA plate was washed 3 times with 1×PBS. After washing, 1% BSA-added 1×PBS (50 μl) was added to each well and blocking was carried out at room temperature for 1 hr. During the blocking reaction, a dilution series of each culture supernatant was prepared using 1% BSA-added 1×PBS. The diluted sample was added to the plate after blocking at 50 μl/well, and the mixture was reacted at room temperature for 1 hr. Thereafter, a washing operation was performed 3 times with 0.05% Tween 20-added 1×PBS solution. Then, the secondary antibody (alkaline phosphatase-labeled) (0.5 μg/ml) that recognizes each isotype was added at 50 μl/well, and the mixture was reacted at room temperature for 1 hr. A washing operation was performed 3 times with 0.05% Tween 20-added 1×PBS solution, a substrate solution (Phosphatase substrate Sigma 104) was added, the mixture was placed under shading at room temperature to allow for color development, and the absorbance (405 nm) was measured with a plate reader. The antibody titer was shown as a relative absorbance value in a graph, or the absolute value was calculated from comparison with the standard isotype antibody and shown graphically.
In the primary screening, 3,337 kinds of compounds (provided by Drug Discovery Initiative, The University of Tokyo) were subjected to in vitro class switching assay. The final concentration of the compounds was 3.75 μM, and DMSO was added at a final concentration of 0.25% and anti-mouse/rat CD40 was added at a final concentration of 1 μg/ml to all wells including the wells added with cytokine. As a negative control, DMSO and CD40 were added.
In the secondary screening, 22 kinds of the candidate compounds obtained by the primary screening were screened. The culture conditions were the same as those in the primary screening. As the positive control, each isotype control antibody (1 μg/ml) was added. […] Compound No. 2 (Sapintoxin D), No. 12 (PMA) and No. 18 (ROPA) were all protein kinase C (PKC) activators.
From the results of the secondary screening, a substance that specifically induces IgA is a PKC activator and it has a characteristic cyclic structure. As compounds having a similar structure, 17 kinds of compounds (K1-K17) including the above-mentioned 3 kinds were provided by the library of Drug Discovery Initiative, The University of Tokyo. […]

[2] = test system: alpha germline transcript; assay: RT-PCR confirmation of expression of alpha germline transcript in stimulated splenic cells; assay type: cell-based, mouse; details: day 3 of stimulation; for expression of alpha germline transcript (RT-PCR): FIG. 11
Protocol: (§1) As evidence that class switching is in progress, the expression of alpha germline transcript and AID was confirmed by RT-PCR. Splenic cells were first stimulated with compound or cytokine under the same conditions as in Example 2. On day 3 of stimulation, floating cells were recovered and total RNA was extracted. cDNA was synthesized using random primers and RT-PCR was performed using the following primers.
(§2) PCR was performed using rTaq (TAKARA) and under the following conditions: […]

B cells (splenic cells) = assay: Dose dependency of class switching induction by compound alone (no CD40), isotype ELISA; assay type: cell-based, mouse; details: 7 days; for IgA production by single stimulation free of CD40: each concentration tested (bryostatin 1 0-50 nM, 0-100 nM; Indolactam V 0-100 μM); for induction of IgE by single stimulation free of CD40 / induction of IgG by single stimulation free of CD40: each concentration tested
Protocol: Indolactam V and bryostatin 1 (Santa Cruz Biotechnology) were purchased, and induction of class switching was performed using splenic cells. To confirm dose dependency of compounds, stimulation was performed at the concentrations shown in FIG. 12, FIG. 13 and FIG. 14. For cell culture, the cells were added to each well of a 6 well plate at 1.0×10^6 B cells/1 ml/well and cultured for 7 days. The cells were cultured without adding anti-mouse/rat CD40 to all wells and the negative control was added with culture medium alone. Stimulation with each cytokine was used as a positive control. The final concentration of each cytokine was 1 μg/ml for anti-mouse/rat CD40, 12.5 ng/ml for IL-4, 20 μg/ml for LPS as in the above-mentioned experiments.
The antibody titer measurement of each isotype by ELISA was performed by a method similar to that mentioned above. As a result, it was confirmed at each concentration tested that IgA was produced and induction of IgG and IgE was not observed by single stimulation with each of bryostatin 1 and Indolactam V free of CD40.

cultured splenic cells = assay: Proliferation / cell number of cultured splenic cells under stimulation; assay type: cell-based, mouse
Protocol: Based on the B cell number obtained in Example 1, the splenic cell suspension was diluted with the above-mentioned cell culture medium to 5×10^5/ml B cells, and the cells were added to a 24-well culture dish. The compound and cytokine were added to each well as shown in the results. DMSO was added such that the concentration of DMSO, which is a solvent of the compound was equivalent in each well (final concentration 0.25%). A mixed culture medium of the compound and splenic cells was subjected to static culture for one week under conditions of 37° C., 5% CO2.
Thus, a substance that has properties as a PKC activator but is free of carcinogenicity was searched for and bryostatin 1 (Santa Cruz Biotechnology sc-201407) was obtained as a candidate (FIGS. 6 and 7). […] Since bryostatin is a substance having a structure completely different from those of the compounds tested in the tertiary screening, those of ordinary skill in the art in consideration of the results of Example 3 and Example 4 readily appreciate that PKC activators in general can be used as substances that induce specific class switching to IgA. In the experiments shown in FIG. 6 and FIG. 7, the final concentration of Indolactam V was 5 μM and 10 μM from the left, and the final concentration of bryostatin 1 was 1 nM, 5 nM, 10 nM from the left.
It was considered to be more than the survival and maintenance of IgA-producing cells originally existed in the spleen. Expression of both transcripts was low when CD40 was not added for bryostatin 1. This may reflect the difference in the amount of cDNA used for RT-PCR.

AID = assay: RT-PCR confirmation of expression of AID in stimulated splenic cells; assay type: cell-based, mouse; details: day 3 of stimulation; for expression of AID (RT-PCR): FIG. 11
Protocol: as §1, §2

[3] = stated as known / considered, not tested; cited from earlier work

Q: Which “IgE induction, secondary screening” value ([1]; with CD40) does the source give for “Resiniferonol-9,13,14-orthophenyl acetate [compound 18]” here?
A: The value was “did not induce”.

Q: And the “IgG1 induction, secondary screening” value ([1]; with CD40)?
A: Its value is “did not induce”.

Q: What about the “IgA induction, secondary screening” value ([1]; with CD40, listed as No. 18) of the same compound?
A: The value was “induced IgA; also recorded: specifically induce IgA”.

Q: What does the source list for CCC/C=C/C=C/C(=O)O[C@H]1/C(=C/C(=O)OC)C[C@H]2C[C@H]([C@@H](C)O)OC(=O)C[C@H](O)C[C@@H]3C[C@H](OC(C)=O)C(C)(C)[C@](O)(C[C@@H]4C/C(=C/C(=O)OC)C[C@H](/C=C/C(C)(C)[C@]1(O)O2)O4)O3 [bryostatin 1]?
A: expression of alpha germline transcript (RT-PCR) [2]: observed; expression of alpha germline transcript (RT-PCR), CD40 not added ([2]; without CD40): low; IgA production by single stimulation free of CD40 (B cells (splenic cells)): produced; also recorded: Only the induction of IgA is shown to occur; induction of IgE by single stimulation free of CD40 (B cells (splenic cells)): not observed; induction of IgG by single stimulation free of CD40 (B cells (splenic cells)): not observed; proliferation of cultured cells, compound alone (cultured splenic cells; bryostatin 1 alone (Example 5)): scarcely observed; proliferation of cultured cells (cultured splenic cells; bryostatin 1 stimulation (Example 4)): scarcely observed; cell number on day 7 (cultured splenic cells; stimulated with bryostatin 1, day 7): extremely small; expression of AID (RT-PCR) (AID): observed; expression of AID (RT-PCR), CD40 not added (AID; without CD40): low; carcinogenicity [3]: did not show carcinogenicity; IgA induction potency compared with Indolactam V ([1]; Example 4, FIG. 6): inferior; specific class switching to IgA (Example 4) ([1]; Example 4, FIGS. 6 and 7): induces specific class switching to IgA; IgE antibody production on day 7 ([1]; bryostatin 1 1, 5, 10 nM): scarcely produced; total IgG antibody production on day 7 ([1]; bryostatin 1 1, 5, 10 nM): scarcely produced; IgA antibody titer on day 5 compared to the negative control (0.02% DMSO+CD40) ([1]; bryostatin 1 1, 5, 10 nM, with CD40, day 5): increased significantly; IgA antibody titer on day 7 ([1]; bryostatin 1 1, 5, 10 nM, with CD40, day 7): low

Q: Which results are given for CNc1ccccc1C(=O)O[C@@H]1[C@@H](C)[C@@]2(O)[C@@H](C=C(CO)C[C@]3(O)C(=O)C(C)=C[C@@H]23)[C@@H]2C(C)(C)[C@]12OC(C)=O [Compound No. 2, Sapintoxin D]?
A: IgE induction, secondary screening ([1]; with CD40): did not induce; IgG1 induction, secondary screening ([1]; with CD40): did not induce; IgA induction, secondary screening ([1]; with CD40): induced IgA; also recorded: specifically induce IgA

Q: What does the source list for CCCCCCCCCCCCCC(=O)O[C@@H]1[C@@H](C)[C@@]2(O)[C@@H](C=C(CO)C[C@]3(O)C(=O)C(C)=C[C@@H]23)[C@@H]2C(C)(C)[C@]12OC(C)=O [compound 12, phorbol 12-myristate 13-acetate]?
A: IgE induction, secondary screening ([1]; with CD40): did not induce; IgG1 induction, secondary screening ([1]; with CD40): did not induce; IgA induction, secondary screening ([1]; with CD40, listed as No. 12): induced IgA; also recorded: specifically induce IgA

Q: Which “expression of alpha germline transcript (RT-PCR)” value [2] does the source give for CC(C)[C@H]1C(=O)N[C@H](CO)Cc2c[nH]c3cccc(c23)N1C [Indolactam V] here?
A: Its value is “observed”.

Q: What about the “IgA production by single stimulation free of CD40” value (B cells (splenic cells)) of the same compound?
A: The value was “produced; also recorded: Only the induction of IgA is shown to occur”.

Q: And the “induction of IgE by single stimulation free of CD40” value (B cells (splenic cells))?
A: The value was “not observed”.

Q: And the “induction of IgG by single stimulation free of CD40” value (B cells (splenic cells))?
A: The value was “not observed”.

Q: What about the “expression of AID (RT-PCR)” value (AID) of the same compound?
A: The value was “observed”.

Q: What about the carcinogenicity [3] of the same compound?
A: The carcinogenicity was “strong carcinogenicity”.

Q: What about the “IgE antibody production on day 7” value ([1]; bryostatin 1 1, 5, 10 nM) of the same compound?
A: Its value is “scarcely produced”.

Q: And the “total IgG antibody production on day 7” value ([1]; bryostatin 1 1, 5, 10 nM)?
A: Its value is “scarcely produced”.

Q: What about the “IgA inducing activity, tertiary screening” value ([1]; culture supernatant one week later, with CD40, Indolactam V 1-7 μM) of the same compound?
A: Its value is “very strong”.

Q: And the “IgA specific class switching, tertiary screening” value ([1]; triplicate, culture supernatant one week later, with CD40, Indolactam V 1, 3, 3.75, 5, 7 μM)?
A: The value was “induced IgA specific class switching; also recorded: best effect”.
